Assay results taken from ChEMBL document CHEMBL2331095, “Synthesis and biological activity of 5-chloro-N⁴-substituted phenyl-9H-pyrimido[4,5-b]indole-2,4-diamines as vascular endothelial growth factor receptor-2 inhibitors and antiangiogenic agents” (Bioorg Med Chem, 2013).

Assays:
A-431 = test: Cytotoxicity against human A431 cells incubated for 12 hrs followed by compound wash out measured 36 hrs by CYQUANT assay; assay type: functional, cell-based
[1] = target: T1, Epidermal growth factor receptor (Homo sapiens, UniProt P00533); assay type: cell-based, A-431;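 note: human A431 cells pretreated 60 min before EGF stimulation, EGF-induced tyrosine phosphorylation read by ELISA after 10 min of activation, lower signal meaning inhibition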
T1 sequence (P00533 whole entry): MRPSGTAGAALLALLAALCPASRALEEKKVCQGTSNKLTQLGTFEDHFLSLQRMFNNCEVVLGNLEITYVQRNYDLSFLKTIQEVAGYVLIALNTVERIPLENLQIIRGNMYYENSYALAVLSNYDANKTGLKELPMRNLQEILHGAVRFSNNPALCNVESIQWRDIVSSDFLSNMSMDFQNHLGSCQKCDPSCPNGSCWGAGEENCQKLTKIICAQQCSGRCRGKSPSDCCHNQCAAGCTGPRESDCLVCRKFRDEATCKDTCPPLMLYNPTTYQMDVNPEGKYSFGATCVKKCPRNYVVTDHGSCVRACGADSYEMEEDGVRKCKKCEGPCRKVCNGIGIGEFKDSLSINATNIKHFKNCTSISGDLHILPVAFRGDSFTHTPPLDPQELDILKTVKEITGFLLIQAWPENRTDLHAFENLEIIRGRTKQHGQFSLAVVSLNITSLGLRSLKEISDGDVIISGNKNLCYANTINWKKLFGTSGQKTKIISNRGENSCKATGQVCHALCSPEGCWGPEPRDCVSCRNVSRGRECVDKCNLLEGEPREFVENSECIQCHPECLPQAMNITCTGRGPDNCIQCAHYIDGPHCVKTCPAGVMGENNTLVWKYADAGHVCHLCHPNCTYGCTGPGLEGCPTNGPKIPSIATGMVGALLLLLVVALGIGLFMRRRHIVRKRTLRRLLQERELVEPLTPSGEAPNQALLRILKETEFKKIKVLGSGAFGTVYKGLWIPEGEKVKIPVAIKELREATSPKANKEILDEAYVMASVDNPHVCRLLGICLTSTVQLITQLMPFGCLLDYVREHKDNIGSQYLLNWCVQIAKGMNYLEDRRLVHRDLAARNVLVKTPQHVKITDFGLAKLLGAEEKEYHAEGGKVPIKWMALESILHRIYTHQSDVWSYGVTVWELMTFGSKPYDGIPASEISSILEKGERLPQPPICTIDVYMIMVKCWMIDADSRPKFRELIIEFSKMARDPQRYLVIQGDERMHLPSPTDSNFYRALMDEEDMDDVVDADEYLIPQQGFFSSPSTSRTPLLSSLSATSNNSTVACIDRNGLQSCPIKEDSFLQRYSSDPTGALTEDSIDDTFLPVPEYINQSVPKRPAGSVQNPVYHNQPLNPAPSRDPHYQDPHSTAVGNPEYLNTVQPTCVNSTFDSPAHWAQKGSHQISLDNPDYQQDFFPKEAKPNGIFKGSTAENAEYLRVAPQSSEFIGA

[2] = target: Vascular endothelial growth factor receptor 2 (Homo sapiens, UniProt P35968); assay type: cell-based, U-251;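 note: human U251 cells, compound preincubated 60 min before VEGF stimulation, VEGF-induced VEGFR2 tyrosine phosphorylation measured by ELISA after 10 min, value is concentration inhibiting this phosphorylation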
Vascular endothelial growth factor receptor 2, sequence (P35968 whole entry): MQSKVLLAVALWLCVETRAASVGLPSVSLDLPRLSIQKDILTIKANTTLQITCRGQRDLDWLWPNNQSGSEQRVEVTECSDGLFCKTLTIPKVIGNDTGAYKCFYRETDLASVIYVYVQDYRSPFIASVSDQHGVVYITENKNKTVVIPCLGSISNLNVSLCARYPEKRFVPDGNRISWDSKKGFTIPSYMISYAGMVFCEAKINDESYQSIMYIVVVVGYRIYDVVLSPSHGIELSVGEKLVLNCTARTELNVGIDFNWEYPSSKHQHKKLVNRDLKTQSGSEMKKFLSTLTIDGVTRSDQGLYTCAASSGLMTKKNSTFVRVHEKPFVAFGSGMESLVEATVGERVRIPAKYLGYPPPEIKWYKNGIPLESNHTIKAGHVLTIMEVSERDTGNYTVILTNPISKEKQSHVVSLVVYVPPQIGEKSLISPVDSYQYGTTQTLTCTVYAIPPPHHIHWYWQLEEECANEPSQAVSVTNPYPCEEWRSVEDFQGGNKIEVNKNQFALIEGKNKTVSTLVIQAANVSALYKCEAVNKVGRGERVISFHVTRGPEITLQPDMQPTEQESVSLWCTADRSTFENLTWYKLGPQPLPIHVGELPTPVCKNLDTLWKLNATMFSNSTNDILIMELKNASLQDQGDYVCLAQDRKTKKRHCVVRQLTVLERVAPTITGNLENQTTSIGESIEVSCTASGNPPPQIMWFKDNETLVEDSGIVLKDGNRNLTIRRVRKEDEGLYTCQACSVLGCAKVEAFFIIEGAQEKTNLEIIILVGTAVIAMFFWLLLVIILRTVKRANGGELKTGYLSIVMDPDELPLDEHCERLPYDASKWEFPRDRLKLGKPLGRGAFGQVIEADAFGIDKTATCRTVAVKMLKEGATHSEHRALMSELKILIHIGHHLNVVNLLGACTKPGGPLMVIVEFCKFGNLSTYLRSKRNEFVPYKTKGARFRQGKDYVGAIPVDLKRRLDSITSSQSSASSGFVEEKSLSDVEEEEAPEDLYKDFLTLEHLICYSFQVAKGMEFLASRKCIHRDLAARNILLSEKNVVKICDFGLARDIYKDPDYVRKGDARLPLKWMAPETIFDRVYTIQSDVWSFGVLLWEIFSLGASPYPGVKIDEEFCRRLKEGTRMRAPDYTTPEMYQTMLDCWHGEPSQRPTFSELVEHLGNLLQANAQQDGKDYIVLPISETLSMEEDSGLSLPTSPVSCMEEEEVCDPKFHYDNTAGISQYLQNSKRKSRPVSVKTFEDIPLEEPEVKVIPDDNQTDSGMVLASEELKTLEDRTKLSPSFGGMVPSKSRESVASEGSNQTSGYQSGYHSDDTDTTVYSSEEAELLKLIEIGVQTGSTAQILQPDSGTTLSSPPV

[3] = target: Platelet-derived growth factor receptor beta (Homo sapiens, UniProt P09619); test: Inhibition of PDGFRbeta in human SF539 cells assessed as inhibition of […] tyrosine phosphorylation incubated for 60 mins prior to PDGF-BB-activation measured 10 mins by ELISA
Platelet-derived growth factor receptor beta, sequence (P09619 whole entry): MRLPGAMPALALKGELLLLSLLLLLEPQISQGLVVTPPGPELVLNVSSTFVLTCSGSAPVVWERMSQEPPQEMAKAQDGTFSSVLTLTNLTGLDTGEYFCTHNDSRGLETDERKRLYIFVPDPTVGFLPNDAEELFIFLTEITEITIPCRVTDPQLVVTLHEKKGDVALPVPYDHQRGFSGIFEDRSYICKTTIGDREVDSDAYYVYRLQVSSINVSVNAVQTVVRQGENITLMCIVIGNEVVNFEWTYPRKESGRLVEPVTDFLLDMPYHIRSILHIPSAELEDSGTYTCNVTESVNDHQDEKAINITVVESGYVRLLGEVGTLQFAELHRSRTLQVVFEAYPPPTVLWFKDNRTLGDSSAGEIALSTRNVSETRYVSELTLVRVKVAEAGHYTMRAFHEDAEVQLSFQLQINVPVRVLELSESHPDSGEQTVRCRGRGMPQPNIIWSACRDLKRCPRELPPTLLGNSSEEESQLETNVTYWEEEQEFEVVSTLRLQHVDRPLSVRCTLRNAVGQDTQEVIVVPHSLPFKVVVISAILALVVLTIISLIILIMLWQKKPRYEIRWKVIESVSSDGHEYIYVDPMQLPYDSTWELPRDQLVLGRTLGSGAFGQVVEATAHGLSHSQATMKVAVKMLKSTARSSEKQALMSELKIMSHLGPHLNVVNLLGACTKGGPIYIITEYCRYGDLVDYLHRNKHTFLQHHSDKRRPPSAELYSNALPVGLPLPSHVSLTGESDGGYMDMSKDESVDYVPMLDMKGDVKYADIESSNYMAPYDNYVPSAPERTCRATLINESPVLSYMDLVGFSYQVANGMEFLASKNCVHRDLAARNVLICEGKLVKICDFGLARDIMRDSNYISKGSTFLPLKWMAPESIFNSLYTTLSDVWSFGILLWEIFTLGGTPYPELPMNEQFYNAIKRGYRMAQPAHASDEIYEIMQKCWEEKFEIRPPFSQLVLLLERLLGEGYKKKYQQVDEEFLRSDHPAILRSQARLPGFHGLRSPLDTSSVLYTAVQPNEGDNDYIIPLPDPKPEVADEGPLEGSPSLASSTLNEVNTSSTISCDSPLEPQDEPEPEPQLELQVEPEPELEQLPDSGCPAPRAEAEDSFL

[4] = target: T1, Epidermal growth factor receptor; test: Ratio of sunitinib IC50 to compound IC50 for EGFR in human A431 cells; assay type: cell-based; conditions: A-431

SMILES | IC50 (A-431) [µM] | IC50 [1] [µM] | IC50 [2] [µM] | IC50 [3] [µM] | Ratio IC50 [4]
CC(C)c1ccc(Nc2nc(NC(=O)C(C)(C)C)nc3[nH]c4cccc(Cl)c4c23)cc1 | > 250 | 39.2 | 47.8 | > 200 | –
CC(C)(C)C(=O)Nc1nc(Nc2ccc(Cl)cc2)c2c(n1)[nH]c1cccc(Cl)c12 | – | 58.7 | 21.3 | > 200 | –
Nc1nc(Nc2ccc(Cl)cc2)c2c(n1)[nH]c1cccc(Cl)c12 | – | 63.6 | 13.2 | 196 | –
CC(C)(C)C(=O)Nc1nc(Nc2cccc(F)c2)c2c(n1)[nH]c1cccc(Cl)c12 | > 250 | 30.8 | 31.2 | > 200 | 5.5
CC(C)(C)C(=O)Nc1nc(Nc2ccc(Cl)cc2F)c2c(n1)[nH]c1cccc(Cl)c12 | > 250 | > 200 | 89.1 | 171 | –
Nc1nc(Nc2cccc(F)c2)c2c(n1)[nH]c1cccc(Cl)c12 | – | > 200 | 86.1 | 172 | –
Nc1nc(Nc2ccc(Cl)cc2F)c2c(n1)[nH]c1cccc(Cl)c12 | – | – | – | > 200 | –
CC(C)(C)C(=O)Nc1nc(Nc2ccccc2)c2c(n1)[nH]c1cccc(Cl)c12 | – | 115 | 192 | 70.6 | –
Nc1nc(Nc2ccccc2)c2c(n1)[nH]c1cccc(Cl)c12 | 193 | > 200 | 124 | > 200 | –
CC(C)c1ccc(Nc2nc(N)nc3[nH]c4cccc(Cl)c4c23)cc1 | – | – | 30.3 | > 200 | –
COc1cccc(Nc2nc(N)nc3[nH]c4cccc(Cl)c4c23)c1 | – | 82.9 | 70.1 | 50.5 | 2.1
COc1cccc(Nc2nc(NC(=O)C(C)(C)C)nc3[nH]c4cccc(Cl)c4c23)c1 | > 250 | 130 | 41 | 196 | –
